PubChem BioAssay AID1259407 (Chemical Carcinogenesis Research Information System (CCRIS), 2018)
The source made the active and inactive calls. The rule behind the calls is not given here.

Test system: CCRIS mutagenicity, Ames/micronucleus/aberration tests
Experiment: CCRIS mutagenicity studies
[1] = Test System: AMES SALMONELLA TYPHIMURIUM, Strain/Indicator: TA98, Metabolic Activation: NONE, Method: STANDARD PLATE
[2] = Test System: AMES SALMONELLA TYPHIMURIUM, Strain/Indicator: TA100, Metabolic Activation: NONE, Method: STANDARD PLATE
[3] = Test System: AMES SALMONELLA TYPHIMURIUM, Strain/Indicator: TA1535, Metabolic Activation: NONE, Method: STANDARD PLATE
[4] = Test System: AMES SALMONELLA TYPHIMURIUM, Strain/Indicator: TA1537, Metabolic Activation: NONE, Method: STANDARD PLATE

## COc1cc([N+](=O)[O-])ccc1N=NC(C(C)=O)C(=O)Nc1ccccc1OC (centres undefined)
Test System: AMES SALMONELLA TYPHIMURIUM, Strain/Indicator: TA97, Metabolic Activation: HAMSTER, LIVER, S-9, AROCLOR 1254 (10%), Method: PREINCUBATION
  mutagenic call: inactive; negative
Test System: AMES SALMONELLA TYPHIMURIUM, Strain/Indicator: TA97, Metabolic Activation: HAMSTER, LIVER, S-9, AROCLOR 1254 (30%), Method: PREINCUBATION
  mutagenic call: inactive; negative
Test System: AMES SALMONELLA TYPHIMURIUM, Strain/Indicator: TA97, Metabolic Activation: NONE, Method: PREINCUBATION
  mutagenic call: inactive; negative
Test System: AMES SALMONELLA TYPHIMURIUM, Strain/Indicator: TA97, Metabolic Activation: RAT, LIVER, S-9, AROCLOR 1254 (10%), Method: PREINCUBATION
  mutagenic call: inactive; negative
Test System: AMES SALMONELLA TYPHIMURIUM, Strain/Indicator: TA97, Metabolic Activation: RAT, LIVER, S-9, AROCLOR 1254 (30%), Method: PREINCUBATION
  mutagenic call: inactive; negative
Test System: AMES SALMONELLA TYPHIMURIUM, Strain/Indicator: TA98, Metabolic Activation: HAMSTER, LIVER, S-9, AROCLOR 1254 (10%), Method: PREINCUBATION
  mutagenic call: inactive; negative
Test System: AMES SALMONELLA TYPHIMURIUM, Strain/Indicator: TA98, Metabolic Activation: HAMSTER, LIVER, S-9, AROCLOR 1254 (30%), Method: PREINCUBATION
  mutagenic call: inactive; negative
Test System: AMES SALMONELLA TYPHIMURIUM, Strain/Indicator: TA98, Metabolic Activation: HAMSTER, LIVER, S-9, AROCLOR 1254, Method: STANDARD PLATE
  mutagenic call: inactive; negative
Test System: AMES SALMONELLA TYPHIMURIUM, Strain/Indicator: TA98, Metabolic Activation: NONE, Method: PREINCUBATION
  mutagenic call: inactive; negative
[1]
  mutagenic call: inactive; negative
Test System: AMES SALMONELLA TYPHIMURIUM, Strain/Indicator: TA98, Metabolic Activation: RAT, LIVER, S-9, AROCLOR 1254 (10%), Method: PREINCUBATION
  mutagenic call: inactive; negative
Test System: AMES SALMONELLA TYPHIMURIUM, Strain/Indicator: TA98, Metabolic Activation: RAT, LIVER, S-9, AROCLOR 1254 (30%), Method: PREINCUBATION
  mutagenic call: inactive; negative
Test System: AMES SALMONELLA TYPHIMURIUM, Strain/Indicator: TA98, Metabolic Activation: RAT, LIVER, S-9, AROCLOR 1254, Method: STANDARD PLATE
  mutagenic call: inactive; negative
Test System: AMES SALMONELLA TYPHIMURIUM, Strain/Indicator: TA100, Metabolic Activation: HAMSTER, LIVER, S-9, AROCLOR 1254 (10%), Method: PREINCUBATION
  mutagenic call: inactive; negative
Test System: AMES SALMONELLA TYPHIMURIUM, Strain/Indicator: TA100, Metabolic Activation: HAMSTER, LIVER, S-9, AROCLOR 1254 (30%), Method: PREINCUBATION
  mutagenic call: inactive; negative
Test System: AMES SALMONELLA TYPHIMURIUM, Strain/Indicator: TA100, Metabolic Activation: HAMSTER, LIVER, S-9, AROCLOR 1254, Method: STANDARD PLATE
  mutagenic call: inactive; negative
Test System: AMES SALMONELLA TYPHIMURIUM, Strain/Indicator: TA100, Metabolic Activation: NONE, Method: PREINCUBATION
  mutagenic call: inactive; negative
[2]
  mutagenic call: inactive; negative
Test System: AMES SALMONELLA TYPHIMURIUM, Strain/Indicator: TA100, Metabolic Activation: RAT, LIVER, S-9, AROCLOR 1254 (10%), Method: PREINCUBATION
  mutagenic call: inactive; negative
Test System: AMES SALMONELLA TYPHIMURIUM, Strain/Indicator: TA100, Metabolic Activation: RAT, LIVER, S-9, AROCLOR 1254 (30%), Method: PREINCUBATION
  mutagenic call: inactive; negative
Test System: AMES SALMONELLA TYPHIMURIUM, Strain/Indicator: TA100, Metabolic Activation: RAT, LIVER, S-9, AROCLOR 1254, Method: STANDARD PLATE
  mutagenic call: inactive; negative
Test System: AMES SALMONELLA TYPHIMURIUM, Strain/Indicator: TA1535, Metabolic Activation: HAMSTER, LIVER, S-9, AROCLOR 1254 (10%), Method: PREINCUBATION
  mutagenic call: inactive; negative
Test System: AMES SALMONELLA TYPHIMURIUM, Strain/Indicator: TA1535, Metabolic Activation: HAMSTER, LIVER, S-9, AROCLOR 1254 (30%), Method: PREINCUBATION
  mutagenic call: inactive; negative
Test System: AMES SALMONELLA TYPHIMURIUM, Strain/Indicator: TA1535, Metabolic Activation: HAMSTER, LIVER, S-9, AROCLOR 1254, Method: STANDARD PLATE
  mutagenic call: inactive; negative
[3]
  mutagenic call: inactive; negative
Test System: AMES SALMONELLA TYPHIMURIUM, Strain/Indicator: TA1535, Metabolic Activation: RAT, LIVER, S-9, AROCLOR 1254 (10%), Method: PREINCUBATION
  mutagenic call: inactive; negative
Test System: AMES SALMONELLA TYPHIMURIUM, Strain/Indicator: TA1535, Metabolic Activation: RAT, LIVER, S-9, AROCLOR 1254 (30%), Method: PREINCUBATION
  mutagenic call: inactive; negative
Test System: AMES SALMONELLA TYPHIMURIUM, Strain/Indicator: TA1535, Metabolic Activation: RAT, LIVER, S-9, AROCLOR 1254, Method: STANDARD PLATE
  mutagenic call: inactive; negative
Test System: AMES SALMONELLA TYPHIMURIUM, Strain/Indicator: TA1537, Metabolic Activation: HAMSTER, LIVER, S-9, AROCLOR 1254, Method: STANDARD PLATE
  mutagenic call: inactive; negative
[4]
  mutagenic call: inactive; negative
Test System: AMES SALMONELLA TYPHIMURIUM, Strain/Indicator: TA1537, Metabolic Activation: RAT, LIVER, S-9, AROCLOR 1254, Method: STANDARD PLATE
  mutagenic call: inactive; negative
Test System: AMES SALMONELLA TYPHIMURIUM, Strain/Indicator: TA1538, Metabolic Activation: HAMSTER, LIVER, S-9, AROCLOR 1254, Method: STANDARD PLATE
  mutagenic call: inactive; negative
Test System: AMES SALMONELLA TYPHIMURIUM, Strain/Indicator: TA1538, Metabolic Activation: NONE, Method: STANDARD PLATE
  mutagenic call: inactive; negative
Test System: AMES SALMONELLA TYPHIMURIUM, Strain/Indicator: TA1538, Metabolic Activation: RAT, LIVER, S-9, AROCLOR 1254, Method: STANDARD PLATE
  mutagenic call: inactive; negative
Test System: MOUSE LYMPHOMA, Strain/Indicator: L5178Y (TK+/TK-), Metabolic Activation: NONE, Method: SUSPENSION/PLATE
  mutagenic call: inactive; negative. reevaluation of results: negative
Test System: MOUSE LYMPHOMA, Strain/Indicator: L5178Y (TK+/TK-), Metabolic Activation: RAT, LIVER, S-9, AROCLOR 1254, Method: SUSPENSION/PLATE
  mutagenic call: inactive; negative. reevaluation of results: negative

## Cc1cc([N+](=O)[O-])c(C)c2c1[nH]c1ccccc12
[1]
  mutagenic call: active; positive
Test System: AMES SALMONELLA TYPHIMURIUM, Strain/Indicator: TA98, Metabolic Activation: RAT LIVER S-9, AROCLOR 1254, Method: STANDARD PLATE
  mutagenic call: active; positive
[2]
  mutagenic call: inactive; negative
Test System: AMES SALMONELLA TYPHIMURIUM, Strain/Indicator: TA100, Metabolic Activation: RAT LIVER S-9, AROCLOR 1254, Method: STANDARD PLATE
  mutagenic call: inactive; negative
[4]
  mutagenic call: inactive; negative
Test System: AMES SALMONELLA TYPHIMURIUM, Strain/Indicator: TA1537, Metabolic Activation: RAT LIVER S-9, AROCLOR 1254, Method: STANDARD PLATE
  mutagenic call: active; positive
Test System: AMES SALMONELLA TYPHIMURIUM, Strain/Indicator: TA1977, Metabolic Activation: NONE, Method: STANDARD PLATE
  mutagenic call: active; positive
Test System: AMES SALMONELLA TYPHIMURIUM, Strain/Indicator: TA1977, Metabolic Activation: RAT LIVER S-9, AROCLOR 1254, Method: STANDARD PLATE
  mutagenic call: active; positive

## O=[N+]([O-])c1cccc(S(=O)(=O)OC[C@@H]2CO2)c1
[2]
  mutagenic call: active; positive

## O=C(O)C(=O)Nc1cccc(-c2nn[nH]n2)c1
[1]
  mutagenic call: inactive; negative
Test System: AMES SALMONELLA TYPHIMURIUM, Strain/Indicator: TA98, Metabolic Activation: RAT, LIVER, S-9, PHENOBARBITAL AND 5,6-BENZOFLAVONE, Method: STANDARD PLATE
  mutagenic call: inactive; negative
[2]
  mutagenic call: inactive; negative
Test System: AMES SALMONELLA TYPHIMURIUM, Strain/Indicator: TA100, Metabolic Activation: RAT, LIVER, S-9, PHENOBARBITAL AND 5,6-BENZOFLAVONE, Method: STANDARD PLATE
  mutagenic call: inactive; negative
[3]
  mutagenic call: inactive; negative
Test System: AMES SALMONELLA TYPHIMURIUM, Strain/Indicator: TA1535, Metabolic Activation: RAT, LIVER, S-9, PHENOBARBITAL AND 5,6-BENZOFLAVONE, Method: STANDARD PLATE
  mutagenic call: inactive; negative
[4]
  mutagenic call: inactive; negative
Test System: AMES SALMONELLA TYPHIMURIUM, Strain/Indicator: TA1537, Metabolic Activation: RAT, LIVER, S-9, PHENOBARBITAL AND 5,6-BENZOFLAVONE, Method: STANDARD PLATE
  mutagenic call: inactive; negative
Test System: E. COLI, Strain/Indicator: WP2 UVRA, Metabolic Activation: NONE, Method: STANDARD PLATE
  mutagenic call: inactive; negative
